Read-outs that look alike come from different tables or passages of the source.
Columns and labels:
[1] = Clinical tolerance with respect to gastric reactions; details: in vivo
[2] = Stability to moisture; assay type: physicochemical; details: open vials, 90% relative humidity, a month
Method: Samples of TBPG and MPG have been maintained in open vials at room temperature under conditions of 90% relative humidity and at 50° C. always with 90% relative humidity. After a month of exposure, the following observations have been made.

[3] = test system: rats; experiment: Action on the period of sleep induced by barbiturates; assay type: in vivo; details: rats intoxicated with CCl4; 200 and 400 mg/kg orally, two days; clear correlation between dosage and effect
Method: The activity of TBPG administered for two days in the dose of 200 and 400 mg/kg orally, has been determined on the basis of the reduction of the period of sleep induced by Nembutal on rats intoxicated with CCl4.

[4] = test system: rats; experiment: Bronchosecretolithic activity in rats (sodium fluorescine method); assay type: in vivo; details: 300 mg/kg intraperitoneally
Method: The secretolithic activity of TBPG has been determined in comparison to α-mercaptopropionylglycine by administering 300 mg/kg of the substance intraperitonally and comparing with 135 mg/kg of α-mercaptopropionylglycine administered also intraperitoneally. The doses are equimolar. The method is based on the use of sodium fluorescine described by H. M. Mawatari (Experimental Studies on the Expectorant Action of Several Drugs, Kogoshima Daigakeu Igakeu Zasshi 27, 561, 1976).

[5] = test system: New Zealand rabbits; experiment: Toxicity in the fetus, rabbits; assay type: in vivo; details: female rabbits, daily oral and subcutaneous, 250 and 500 mg/kg, twenty eight days of gestation
Text: Toxicity in the fetus of TBPG has been studied in albino Sprague-Dawley rats and in New Zealand rabbits. In the case of rats both male and female, the treatment has been initiated four weeks prior to coupling and then has been continued only in the females during the twenty days of gestation.
In the case of female rabbits, the treatment has been carried out during the twenty eight days of gestation.

[6] = test system: rats; experiment: Protective activity of the liver in the intoxication caused by CCl4 (BSF elimination); assay type: in vivo; details: rats intoxicated with CCl4; 200 and 400 mg/kg orally, 14 days; BSF 10 mg/kg i.v. on day 15; proportionate to the dosage
Method: The animals, that is rats, were intoxicated with CCl4 for a period of seven days. They were treated during the same days and for a subsequent period of seven days with TBPG in the dose of 200 and 400 mg/kg orally and with α-mercaptopropionylglycine in the dose of 90 and 180 mg/kg orally. On the fifteenth day, the rats have been treated with BSF in the amount of 10 mg/kg intravenously.

[7] = test system: rats; experiment: Protective action on chronic bronchitis induced by inhalation of SO2; assay type: in vivo; details: SO2 aerosol, 100 and 400 mg/kg oral, rectal and inhalation, two weeks
Method: Bronchopulmonary lesions were induced in the animals by aerosolization of SO2. The animals were then treated for two weeks with TBPG in the dosage of 100 and 400 mg/kg by the oral route, rectal route and by inhalation.

[8] = test system: rabbits; experiment: Subchronic toxicity, rectal route; assay type: in vivo; details: eight consecutive weeks
[9] = Stability in reducing medium (SO2); assay type: physicochemical; details: 25 mg/ml, sodium bisulfite calculated as SO2, refluxed three hours
Method: In the presence of SO2 --solutions containing 25 mg/ml of TBPG and MPG respectively in the presence of sodium bisulfite calculated as SO2 are warmed and refluxed for a period of three hours.

[10] = test system: guinea pigs; experiment: Antibronchospastic activity, histamine aerosol; assay type: in vivo; details: oral, rectal or inhalation, 200 and 400 mg/kg
Text: Histamine administered in the form of an aerosol has caused in guinea pigs symptoms of broncho-spasm accompanied by convulsions, irreversible collapse and death.

[11] = test system: anaesthesized cats; experiment: Pharmacodynamics in anaesthesized cats; assay type: in vivo; details: up to 50 mg/kg intravenously
[12] = test system: rats; experiment: Chronic toxicity in rats; assay type: in vivo; details: 24 weeks, 125 and 250 mg/kg oral, 200 mg/kg by inhalation
Method: The chronic toxicity of TBPG has been investigated in rats and dogs treated for a period of 24 weeks with 125 mg/kg and 250 mg/kg by the oral route and 200 mg/kg by inhalation.

[13] = test system: rats; experiment: Regenerative action in partial hepatectomy; assay type: in vivo; details: partial hepatectomy (70% excision), 200 and 400 mg/kg oral, six days
[14] = Acute toxicity in rats; assay type: in vivo; details: rat, in vivo; for mortality at 240 h: read-out: % Death; for LD50 at 240 h: 10 days observation, probits, read-out: DL50 mg/kg (Confidential Limits)
Method: (§1) The acute toxicity has been studied with Swiss albino rats and Wistar albino rats and in both instances, animals of both sexes have been used. The product is administered orally and endoperitoneally and the period of observation is ten days after the initial treatment. The values of DL50 by the statistical method with confidential limits up to 95% are calculated by means of the method of probits reported in Table I. Probits is a statistical unit of probable deviation used in biological assays; equal to the normal equivalent deviate increased by 5, used to make all normal equivalent deviation values positive.

[15] = test system: Rats; experiment: Acute toxicity in rats; assay type: in vivo; details: 20 tested
Method: as §1

[16] = test system: guinea pigs; experiment: Protective activity in subacute bronchitis induced by inhalation of citric acid; assay type: in vivo; details: 7.5% citric acid inhalation, oral, rectal or inhalation, 50 and 200 mg/kg, two weeks

Q: With `COc1cc(C(=O)SC(C)C(=O)NCC(=O)O)cc(OC)c1OC` (stereo not drawn) [TBPG, α-(3,4,5-trimethoxybenzoyl)thiopropionylglycine] as the molecule, how does the “clinical tolerance with respect to gastric reactions” value [1] read?
A: optimum clinical tolerance

Q: And the stability to moisture ([2]; 50° C.)?
A: slight yellow color, but no degradation products

Q: What about the stability to moisture ([2]; room temperature (t.a.)) of the same molecule?
A: no decomposition

Q: And the “reduction of the period of sleep induced by Nembutal” value [3]?
A: very substantial

Q: What about the bronchosecretolithic activity [4] of the same molecule?
A: 34.4%

Q: What about the “toxicity in the fetus (deformation, number and weight of living offspring)” value [5] of the same molecule?
A: has not induced any deformation in the fetus and has not affected the number and the weight of the living offspring

Q: And the “elimination of BSF (hematic concentrations)” value [6]?
A: favors the elimination of BSF in a statistically significant manner

Q: What about the “protection of the bronchi and lungs (bronchopulmonary lesions and mortality)” value [7] of the same molecule?
A: significant action in the protection of the bronchi and lungs

Q: And the “hematochemical data, hepatic and renal functions, autopsies and macro/microscopic controls of the main organs” value ([8]; 400 mg/kg per day)?
A: have not shown any variations from the normal

Q: What about the “behavior and body growth of the animals” value ([8]; two suppositories per day equal to 400 mg/kg) of the same molecule?
A: has not caused any irregularities

Q: What about the “stability in reducing medium” value [9] of the same molecule?
A: undergoes no physico-chemical change or organoleptic change

Q: What about the “period of time between administration of the histamine aerosol and appearance of bronchospastic symptoms” value [10] of the same molecule?
A: increased very substantially

Q: And the arterial pressure [11]?
A: low and temporary reduction

Q: What about the “cardiac frequency, respiratory dynamics and electrocardiogram” value [11] of the same molecule?
A: without any effect

Q: And the tolerance [11]?
A: very high tolerance

Q: What about the “chronic toxicity (symptoms, behavior, deaths, body growth, hematology, hepatic and renal functions, organs)” value [12] of the same molecule?
A: totally innocuous

Q: And the “regeneration of the hepatic tissue” value [13]?
A: favoring the regeneration of the hepatic tissue in statistically significant manner

Q: And the mortality at 240 h ([14]; ip, 1500 mg/kg)?
A: 0%

Q: And the mortality at 240 h ([14]; ip, 2000 mg/kg)?
A: 30%

Q: What about the mortality at 240 h ([14]; ip, 2500 mg/kg) of the same molecule?
A: 45%

Q: And the mortality at 240 h ([14]; ip, 3000 mg/kg)?
A: 70%

Q: And the mortality at 240 h ([14]; ip, 3500 mg/kg)?
A: 85%

Q: What about the LD50 at 240 h ([14]; ip, 95% limits (2483-2887)) of the same molecule?
A: 2670 mg/kg

Q: What about the mortality at 240 h ([14]; po, orally, 3000 mg/kg) of the same molecule?
A: 5%

Q: What about the mortality at 240 h ([14]; po, orally, 4000 mg/kg) of the same molecule?
A: 30%

Q: And the mortality at 240 h ([14]; po, orally, 5000 mg/kg)?
A: 45%

Q: And the mortality at 240 h ([14]; po, orally, 6000 mg/kg)?
A: 60%

Q: And the mortality at 240 h ([14]; po, orally, 7000 mg/kg)?
A: 85%

Q: And the LD50 at 240 h ([14]; po, orally, 95% limits (4879-5873))?
A: 5230 mg/kg

Q: What about the “No. of Animals Dead” value ([15]; i.p., 1500 mg/kg) of the same molecule?
A: 0

Q: What about the “No. of Animals Dead” value ([15]; i.p., 2000 mg/kg) of the same molecule?
A: 6

Q: What about the “No. of Animals Dead” value ([15]; i.p., 2500 mg/kg) of the same molecule?
A: 9

Q: And the “No. of Animals Dead” value ([15]; i.p., 3000 mg/kg)?
A: 14

Q: And the “No. of Animals Dead” value ([15]; i.p., 3500 mg/kg)?
A: 17

Q: And the “No. of Animals Dead” value ([15]; orally, 3000 mg/kg)?
A: 1

Q: And the “No. of Animals Dead” value ([15]; orally, 4000 mg/kg)?
A: 6

Q: What about the “No. of Animals Dead” value ([15]; orally, 5000 mg/kg) of the same molecule?
A: 9

Q: What about the “No. of Animals Dead” value ([15]; orally, 6000 mg/kg) of the same molecule?
A: 12

Q: And the “No. of Animals Dead” value ([15]; orally, 7000 mg/kg)?
A: 17

Q: What about the mortality index [16] of the same molecule?
A: substantially reduced

Q: And the “protective action on bronchial conditions (macro and micro examination of the lungs)” value [16]?
A: effective protective action in proportion to the dose
